For one series, the system named is Serratia marcescens. Kind of series: In vitro antibacterial activity against Serratia marcescens A 20019. The settings on record: Serratia marcescens; read-out: MIC. It is filed as functional.
Series [1] has as its system Klebsiella pneumoniae. Kind of series: In vitro antibacterial activity against Klebsiella pneumoniae A 9664. It is filed as functional. The settings on record: Klebsiella pneumoniae; read-out: MIC.
For series [2], the system named is Escherichia coli. Kind of series: In vitro antibacterial activity against Escherichia coli A 15119. It is filed as functional. To be noted: Escherichia coli; read-out: MIC.
The test system of the next series is Enterobacter cloacae. The experiment in a line: In vitro antibacterial activity against Enterobacter cloacae A 9656. It is filed as functional. To be noted: Enterobacter cloacae; read-out: MIC.
The test system of series [3] is Staphylococcus aureus. Kind of series: In vitro antibacterial activity against Staphylococcus aureus A9537. The format is functional. To be noted: Staphylococcus aureus; read-out: MIC.
Another series concerns Morganella morganii. The experiment in a line: In vitro antibacterial activity against Morganella morganii A 15153. To be noted: Morganella morganii; read-out: MIC. The format is functional.
The test system of a further series is Enterococcus faecalis. Kind of series: In vitro antibacterial activity against Enterococcus faecalis A9809. The format is functional. To be noted: Enterococcus faecalis; read-out: MIC.
The subject of another series is Enterococcus faecium. The experiment in a line: In vitro antibacterial activity against Enterococcus faecium A 24885. The format is functional. To be noted: Enterococcus faecium; read-out: MIC.
Series [4] has as its system Pseudomonas aeruginosa. The experiment in a line: In vitro antibacterial activity against Pseudomonas aeruginosa A 9243. The settings on record: Pseudomonas aeruginosa; read-out: MIC. It is filed as functional.
Series [5] concerns Klebsiella pneumoniae. The experiment in a line: In vivo potency on systemic infection caused by Klebsiella pneumoniae A 9664 after oral administration to mice expressed as median protective dose. The format is functional. The settings on record: read-out: PD50.
In series [6] the test system is Escherichia coli. The experiment in a line: In vivo potency on systemic infection caused Escherichia coli A 15119 by after oral administration to mice expressed as median protective dose. The format is functional. The settings on record: read-out: PD50.
Series [7] has as its system Escherichia coli. The experiment in a line: (§1) In vivo potency on systemic infection caused by after oral administration to mice expressed as median protective dose. To be noted: read-out: PD50. It is filed as functional.
Series [8] has as its system Klebsiella pneumoniae. Described as §1. The settings on record: read-out: PD50. The format is functional.
Series [9] has as its system Pseudomonas aeruginosa. The description is as §1. It is filed as functional. To be noted: read-out: PD50.
The subject of series [10] is Staphylococcus aureus. The experiment in a line: animal or person. The settings on record: in Mus musculus, po, read-out: PD50.
Description: In vivo potency on systemic infection caused by Staphylococcus aureus A9537 after oral administration to mice expressed as median protective dose.
The next series is described as follows: in vivo. The settings on record: mouse, po, 50 mg/kg.

Molecules are shown by their SMILES. ≈ marks a conversion by molar mass, not a printed value.

On to `CC1(C)CN(c2nc3c(cc2F)c(=O)c(C(=O)O)cn3C(C)(C)C)C[C@@H]1N`, for which the MIC (in general, the lowest concentration found to suppress growth) with Serratia marcescens is 0.25 µg/mL (≈ 0.664 µM); in the series on Klebsiella pneumoniae [1], 0.25 µg/mL (≈ 0.664 µM); in the series on Escherichia coli [2], 0.06 µg/mL (≈ 0.159 µM); with Enterobacter cloacae, 0.25 µg/mL (≈ 0.664 µM); in the series on Staphylococcus aureus [3] it was 0.03 µg/mL (≈ 0.0797 µM); with Morganella morganii, 0.25 µg/mL (≈ 0.664 µM). Further, the MIC with Enterococcus faecalis, in the series on Enterococcus faecium and in the series with Pseudomonas aeruginosa [4] was 4 µg/mL (≈ 10.6 µM) throughout.

Turning to `CC(C)(C)n1cc(C(=O)O)c(=O)c2cc(F)c(N3CC[C@@H](N)C3)nc21`, the MIC came to 0.25 µg/mL (≈ 0.718 µM) with Serratia marcescens; 0.13 µg/mL (≈ 0.373 µM) with Klebsiella pneumoniae [1]; 0.06 µg/mL (≈ 0.172 µM) with Escherichia coli [2]; 0.06 µg/mL (≈ 0.172 µM) in the series on Enterobacter cloacae; 0.015 µg/mL (≈ 0.0431 µM) with Staphylococcus aureus [3]; 0.25 µg/mL (≈ 0.718 µM) in the series with Morganella morganii. For the same compound, the MIC in the series with Enterococcus faecalis worked out at 0.13 µg/mL (≈ 0.373 µM); in the series on Enterococcus faecium, 1 µg/mL (≈ 2.87 µM); in the series with Pseudomonas aeruginosa [4] it was 0.25 µg/mL (≈ 0.718 µM). The ED50 in the series on Klebsiella pneumoniae [5] and in the series on Escherichia coli [6] was 4.9 mg/kg in each case.

With `CC1(C)CN(c2nc3c(cc2F)c(=O)c(C(=O)O)cn3C(C)(C)C)C[C@H]1N`, the MIC in the series with Serratia marcescens was 0.5 µg/mL (≈ 1.33 µM); in the series on Klebsiella pneumoniae [1], 0.13 µg/mL (≈ 0.345 µM); with Escherichia coli [2], 0.06 µg/mL (≈ 0.159 µM); in the series on Enterobacter cloacae, 0.03 µg/mL (≈ 0.0797 µM); in the series on Staphylococcus aureus [3], 0.015 µg/mL (≈ 0.0398 µM); in the series on Morganella morganii it was 0.5 µg/mL (≈ 1.33 µM). The MIC in the series with Enterococcus faecalis worked out at 0.25 µg/mL (≈ 0.664 µM); in the series on Enterococcus faecium, 2 µg/mL (≈ 5.31 µM); with Pseudomonas aeruginosa [4], 2 µg/mL (≈ 5.31 µM).

With `O=C(O)c1cn(C2CC2)c2cc(N3CCNCC3)c(F)cc2c1=O` [CIPROFLOXACIN], the MIC with Serratia marcescens is 0.03 µg/mL (≈ 0.0905 µM); with Klebsiella pneumoniae [1], 0.06 µg/mL (≈ 0.181 µM); in the series with Staphylococcus aureus [3], 0.06 µg/mL (≈ 0.181 µM); with Morganella morganii, 0.06 µg/mL (≈ 0.181 µM); in the series on Enterococcus faecium, 4 µg/mL (≈ 12.1 µM). Moreover, the ED50 stood at 0.7 mg/kg in the series with Escherichia coli [7], 1.5 mg/kg in the series with Klebsiella pneumoniae [8], 5 mg/kg in the series on Pseudomonas aeruginosa [9] and 4 mg/kg with Staphylococcus aureus [10]. The Cmax – broadly, the maximum level reached in the sampled fluid or tissue – in “in vivo” is 5900 ng/mL.

Regarding `CN[C@@H]1CCN(c2nc3c(cc2F)c(=O)c(C(=O)O)cn3C(C)(C)C)C1`, the MIC in the series on Serratia marcescens came out at 0.5 µg/mL (≈ 1.38 µM); with Klebsiella pneumoniae [1] it was 0.13 µg/mL (≈ 0.359 µM); in the series on Escherichia coli [2] it was 0.06 µg/mL (≈ 0.166 µM); with Enterobacter cloacae, 0.13 µg/mL (≈ 0.359 µM); in the series with Staphylococcus aureus [3], 0.03 µg/mL (≈ 0.0828 µM); in the series with Morganella morganii, 0.5 µg/mL (≈ 1.38 µM). Also, the figures for the minimal inhibitory concentration (MIC) in the series on Enterococcus faecalis, in the series on Enterococcus faecium and with Pseudomonas aeruginosa [4] were 1 µg/mL (≈ 2.76 µM), 8 µg/mL (≈ 22.1 µM) and 1 µg/mL (≈ 2.76 µM), respectively.

In the case of `C[C@H]1CN(c2nc3c(cc2F)c(=O)c(C(=O)O)cn3C(C)(C)C)C[C@@H]1N`, the minimal inhibitory concentration (MIC) in the series on Serratia marcescens came to 0.5 µg/mL (≈ 1.38 µM); in the series on Klebsiella pneumoniae [1] it was 0.25 µg/mL (≈ 0.69 µM); in the series on Escherichia coli [2] it was 0.06 µg/mL (≈ 0.166 µM); with Enterobacter cloacae, 0.03 µg/mL (≈ 0.0828 µM); in the series with Staphylococcus aureus [3] it was 0.015 µg/mL (≈ 0.0414 µM); in the series on Morganella morganii, 0.25 µg/mL (≈ 0.69 µM). Moreover, the MIC with Enterococcus faecalis was 0.25 µg/mL (≈ 0.69 µM); in the series on Enterococcus faecium it was 4 µg/mL (≈ 11 µM); in the series on Pseudomonas aeruginosa [4], 2 µg/mL (≈ 5.52 µM).

Consider `C[C@@H]1CN(c2nc3c(cc2F)c(=O)c(C(=O)O)cn3C(C)(C)C)C[C@@H]1N`, for which the MIC in the series on Serratia marcescens is 0.5 µg/mL (≈ 1.38 µM); in the series on Klebsiella pneumoniae [1], 0.06 µg/mL (≈ 0.166 µM); in the series with Escherichia coli [2], 0.13 µg/mL (≈ 0.359 µM); with Enterobacter cloacae, 0.03 µg/mL (≈ 0.0828 µM); in the series with Staphylococcus aureus [3], 0.015 µg/mL (≈ 0.0414 µM); with Morganella morganii, 0.5 µg/mL (≈ 1.38 µM). Also, the MIC in the series on Enterococcus faecalis stood at 0.5 µg/mL (≈ 1.38 µM); in the series on Enterococcus faecium, 4 µg/mL (≈ 11 µM); in the series with Pseudomonas aeruginosa [4], 1 µg/mL (≈ 2.76 µM).

For the compound `CN[C@H]1CCN(c2nc3c(cc2F)c(=O)c(C(=O)O)cn3C(C)(C)C)C1`, the MIC came to 0.25 µg/mL (≈ 0.69 µM) in the series on Serratia marcescens; 0.06 µg/mL (≈ 0.166 µM) in the series with Klebsiella pneumoniae [1]; 0.03 µg/mL (≈ 0.0828 µM) with Escherichia coli [2]; 0.06 µg/mL (≈ 0.166 µM) with Enterobacter cloacae; 0.015 µg/mL (≈ 0.0414 µM) in the series with Staphylococcus aureus [3]; 0.25 µg/mL (≈ 0.69 µM) in the series on Morganella morganii. Moreover, the values for the MIC with Enterococcus faecalis, with Enterococcus faecium and with Pseudomonas aeruginosa [4] were 1 µg/mL (≈ 2.76 µM), 2 µg/mL (≈ 5.52 µM) and 0.25 µg/mL (≈ 0.69 µM), respectively. The ED50 in the series with Escherichia coli [7] turned out to be 1.2 mg/kg; with Klebsiella pneumoniae [8] it was 2.6 mg/kg; in the series with Pseudomonas aeruginosa [9] it was 6.1 mg/kg; in the series on Staphylococcus aureus [10], 0.31 mg/kg.

(Values after ChEMBL document CHEMBL1126257, “Fluoronaphthyridines and -quinolones as antibacterial agents. 5. Synthesis and antimicrobial activity of chiral 1-tert-butyl-6-fluoro-7-substituted-naphthyridones” (J Med Chem, 1992).)
